Literature values as cited in patent publication US20250268979A1, “COMBINATION OF MACROCYCLIC CFTR MODULATORS WITH CFTR CORRECTORS AND / OR CFTR POTENTIATORS” (Idorsia Pharmaceuticals Ltd, priority 2022, published 2025).
Where two headings read alike, the source gives them in different places.

Key:
[1] = tested on: F508del-CFTR homozygous patients; settings: Keating, 2018
[2] = tested on: CF patients carrying at least one F508del-CFTR allele
[3] = tested on: CF patients carrying class III, IV CFTR mutations on one allele
[4] = tested on: patients homozygous for the F508del-CFTR mutation; settings: 450 mg b.i.d.
healthy volunteers = settings: up to 1000 mg following SAD and up to 750 mg b.i.d. following MAD
[5] = tested on: patients with moderate to severe COPD and symptoms of chronic bronchitis; settings: 300 mg b.i.d., 4 weeks
[6] = tested on: CF patients homozygous for the F508del-CFTR mutation
F508del-CFTR [7] = molecular target: T1, F508del-CFTR (Homo sapiens, UniProt P13569, DEL508-508); settings: homozygous F508del-CFTR doners; in the presence of potentiator GLPG1837
T1 construct: from tissue; host or cells: reconstituted bronchial epithelium from CF patients
T1 sequence (P13569 with tags, fused parts or gaps DEL508-508): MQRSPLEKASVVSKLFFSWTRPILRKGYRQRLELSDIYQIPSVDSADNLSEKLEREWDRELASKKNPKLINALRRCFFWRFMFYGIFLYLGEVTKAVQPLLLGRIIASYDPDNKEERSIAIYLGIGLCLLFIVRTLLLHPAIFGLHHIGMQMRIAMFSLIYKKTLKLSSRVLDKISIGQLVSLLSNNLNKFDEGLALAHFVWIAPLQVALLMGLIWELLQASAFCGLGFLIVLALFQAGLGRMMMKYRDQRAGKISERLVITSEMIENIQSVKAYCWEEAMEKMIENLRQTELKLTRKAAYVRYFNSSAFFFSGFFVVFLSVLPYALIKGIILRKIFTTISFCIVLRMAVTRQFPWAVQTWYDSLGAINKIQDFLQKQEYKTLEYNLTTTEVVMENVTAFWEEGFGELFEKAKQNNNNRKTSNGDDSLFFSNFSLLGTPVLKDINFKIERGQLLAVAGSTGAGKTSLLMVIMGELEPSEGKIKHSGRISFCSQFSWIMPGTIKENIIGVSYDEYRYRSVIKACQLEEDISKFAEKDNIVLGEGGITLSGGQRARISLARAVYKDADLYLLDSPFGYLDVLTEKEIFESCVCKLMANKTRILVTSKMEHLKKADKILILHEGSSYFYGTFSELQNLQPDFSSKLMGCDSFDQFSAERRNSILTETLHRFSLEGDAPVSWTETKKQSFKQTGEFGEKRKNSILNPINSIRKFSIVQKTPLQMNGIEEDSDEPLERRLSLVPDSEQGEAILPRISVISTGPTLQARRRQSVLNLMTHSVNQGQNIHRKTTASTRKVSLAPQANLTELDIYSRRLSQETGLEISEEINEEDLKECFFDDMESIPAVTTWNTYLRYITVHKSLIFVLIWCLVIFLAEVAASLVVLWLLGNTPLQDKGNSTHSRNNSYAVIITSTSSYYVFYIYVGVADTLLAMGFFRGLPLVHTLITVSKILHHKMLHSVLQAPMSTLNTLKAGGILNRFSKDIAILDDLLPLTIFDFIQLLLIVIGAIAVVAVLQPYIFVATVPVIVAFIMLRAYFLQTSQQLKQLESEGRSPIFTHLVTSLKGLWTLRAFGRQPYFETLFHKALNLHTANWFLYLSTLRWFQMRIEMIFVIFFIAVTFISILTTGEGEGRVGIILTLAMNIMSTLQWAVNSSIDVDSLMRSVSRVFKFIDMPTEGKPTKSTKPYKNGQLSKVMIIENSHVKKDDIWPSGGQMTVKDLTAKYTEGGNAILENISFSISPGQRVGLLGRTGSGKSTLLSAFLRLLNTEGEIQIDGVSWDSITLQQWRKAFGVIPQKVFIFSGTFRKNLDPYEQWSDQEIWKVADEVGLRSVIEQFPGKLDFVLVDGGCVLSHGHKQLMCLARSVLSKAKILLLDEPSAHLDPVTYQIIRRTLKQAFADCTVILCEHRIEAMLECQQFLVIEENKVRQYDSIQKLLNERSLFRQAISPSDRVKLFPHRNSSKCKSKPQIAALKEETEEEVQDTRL

[8] = tested on: CF patients with ivacaftor-responsive CFTR mutations; settings: for mean ctrough plasma concentration: 4 weeks of treatment; for absolute change from baseline in sweat chloride compared to ivacaftor 150 mg b.i.d. / ppFEV1 treatment difference versus ivacaftor 150 mg b.i.d.: 12 weeks
F508del-CFTR [9] = molecular target: T1, F508del-CFTR
[10] = 14 days, PTI-801 600 mg triple combination
[11] = patients predisposed to rapid pulmonary decline, combo regimen with 600 mg PTI-801

Nc1cc(S(=O)(=O)c2ccc(OC(F)(F)F)cc2)cnc1-c1nnc(CO)o1 [navocaftor, (5-(3-Amino-5-((4-(trifluoromethoxy)phenyl)sulfonyl)pyridin-2-yl)-1,3,4-oxadiazol-2-yl) methanol]
navocaftor exposure in the presence of galicaftor (healthy subjects; in vivo): not apparently altered
tolerability (healthy subjects; up to 1000 mg single dose and up to 500 mg b.i.d. for 14 days): generally well tolerated

Cc1nn(C)cc1S(=O)(=O)NC(=O)c1ccc(-n2ccc(OCC(C)(C)C(F)(F)F)n2)nc1N1C[C@@H](C)CC1(C)C [elexacaftor, N-(1,3-dimethyl-1H-pyrazole-4-sulfonyl)-6-[3-(3,3,3-trifluoro-2,2-dimethylpropoxy)-1H-pyrazol-1-yl]-2-[(4S)-2,2,4-trimethylpyrrolidin-1-yl]pyridine-3-carboxamide]
ppFEV1 increase on adding to basal treatment of tezacaftor+ivacaftor (SYMDEKO) [1]: 10%

Cc1c(-c2cc(C(=O)O)c3c(O[C@H](C)C4CCOCC4)ccc(C)c3n2)oc2ccccc12 [PTI-801]
decrease in sweat chloride compared with before treatment [2, 10]: 19 mM
decrease in sweat chloride compared with placebo [2, 10]: 24 mM
increase in mean absolute ppFEV1 compared with before the treatment ([2]; 14 days, PTI-801 600 mg with PTI-808 150 mg and PTI-428 30 mg): 5%
improvement in ppFEV1 compared with before treatment [2, 11]: 6%
improvement in ppFEV1 compared with placebo [2, 11]: 8%

COc1nc(C(=O)NC[C@](C)(O)C(F)(F)F)c(N)cc1C(F)(F)F [icenticaftor, 3-Amino-6-methoxy-N-[(2S)-3,3,3-trifluoro-2-hydroxy-2-methylpropyl]-5-(trifluoromethyl)pyridine-2-carboxamide]
LCI2.5 compared to placebo ([3]; 450 mg b.i.d., 14 days): −1.13
ppFEV1 increase versus placebo ([3]; 450 mg b.i.d., 14 days): 6.5%
sweat chloride concentration versus placebo ([3]; 450 mg b.i.d., 14 days): -8.4 mM
tolerability in CF patients ([3]; 150 and 450 mg b.i.d., across all patient sub-groups): well tolerated
sweat chloride and lung function [4]: no reduction in sweat chloride or improvement in lung function
tolerability (healthy volunteers): well tolerated
LCI2.5 compared to placebo [5]: did not change
sweat chloride compared to placebo ([5]; average baseline 23 mM): -5.04 mM
FEV1 compared to placebo ([5]; average baseline 1.4-1.5 L): 0.05 to 0.06 L
plasma fibrinogen compared to placebo ([5]; average baseline 3.2 g/L): -0.39 g/L

O=C(O)c1ccc([C@H]2C[C@@H](NC(=O)C3(c4ccc5c(c4)OC(F)(F)O5)CC3)c3ccc(OC(F)F)cc3O2)cc1 [galicaftor, 4-[(2R,4R)-4-({[1-(2,2-Difluoro-1,3-benzodioxol-5-yl)cyclopropyl]carbonyl}amino)-7-(difluoromethoxy)-3,4-dihydro-2H-chromen-2-yl]benzoic Acid]
change in sweat chloride versus placebo ([6]; 200 mg dose group, day 29): -15.8 mM
tolerability and safety ([6]; 4 weeks, once-daily 50, 100, 200 and 400 mg): well tolerated and safe
change from baseline in CFQ-R score versus placebo ([6]; day 29): No significant changes versus placebo
change from baseline in ppFEV1 versus placebo ([6]; day 29): No significant changes versus placebo
EC50 (F508del-CFTR [7]): 5 nM
galicaftor exposure in the presence of two different doses of navocaftor (healthy subjects; in vivo): similar

CC(C)(C)c1cc(C(C)(C)C)c(NC(=O)c2c[nH]c3ccccc3c2=O)cc1O [ivacaftor, N-(2,4-di-tert-butyl-5-hydroxyphenyl)-1,4-dihydro-4-oxoquinoline-3-carboxamide]
mean ctrough plasma concentration ([8]; 150 mg b.i.d.): 952 ng/mL
further augmentation of function on addition to tezacaftor and elexacaftor (F508del-CFTR [9]; Keating, 2018): 2 fold
augmentation of CFTR function on addition to lumacaftor-corrected F508del-CFTR (F508del-CFTR [9]; van Goor, 2011): almost two-fold

[2H]C([2H])([2H])C(c1cc(C(C)(C)C)c(NC(=O)c2c[nH]c3ccccc3c2=O)cc1O)(C([2H])([2H])[2H])C([2H])([2H])[2H] [deutivacaftor, N-[2-tert-butyl-4-[1,1,1,3,3,3-hexadeuterio-2-(trideuteriomethyl)propan-2-yl]-5-hydroxyphenyl]-4-oxo-1H-quinoline-3-carboxamide]
mean ctrough plasma concentration ([8]; 150 mg once daily): 458 ng/mL
absolute change from baseline in sweat chloride compared to ivacaftor 150 mg b.i.d. ([8]; 150 mg once daily): +2.4 mM
ppFEV1 treatment difference versus ivacaftor 150 mg b.i.d. ([8]; 150 mg once daily): +3.9%
mean ctrough plasma concentration ([8]; 250 mg once daily): 1100 ng/mL
absolute change from baseline in sweat chloride compared to ivacaftor 150 mg b.i.d. ([8]; 250 mg once daily): -7.4 mM
ppFEV1 treatment difference versus ivacaftor 150 mg b.i.d. ([8]; 250 mg once daily): +3.5%
